This test relates to K24384-001-R-PDC complex spheroid growth. Nature of the test: Anticancer human tumor K24384-001-R-PDC patient-derived pancreatic adenocarcinoma cell line growth inhibition [AhR]. Particulars: for viability, T/C: stronger effect = lower value. An excerpt:
Multicellular complex tumor spheroid response to aryl hydrocarbon receptor antagonists in combination with a variety of drugs and investigational agents in selected tumor cell lines
The current study was undertaken to assess response to aryl hydrocarbon receptor antagonists in combination with standard-of-care drugs and investigational agents in solid tumor complex spheroid models. Complex spheroids include a stromal component modeled by human endothelial cells (HUVEC) and fibroblasts modeled by human mesenchymal stem cells (MSCs). The concentration ranges selected for each drug and investigational agent were based upon clinically achievable concentrations if the clinical Cmax of the agent was known.
Compounds. The drugs and investigational agents: BAY 2416964 (NSC825713), GNF351 (NSC835774), CH-223191 (NSC835775), CPI-455 (NSC825282), aza-TdCyd (NSC777586), decitabine (NSC127716), belinostat (NSC758774), entinostat (NSC756642), pevonedistat (NSC761192), tazemetostat (NSC777109), talazoparib (NSC765396), olaparib (NSC753686), selinexor (NSC780203), nedisertib (M3814, NSC802822), bortezomib (NSC756655), venetoclax (NSC766270), doxorubicin (NSC123127), elimusertib (BAY189344, NSC800525), ceralasertib (AZD6738, NSC777638), TAK-243 (NSC785004), alisertib (NSC759677), etoposide (NSC141540), topotecan (NSC609699), eribulin (NSC707389), gemcitabine (NSC613327), carboplatin (NSC241240), cisplatin (NSC119875), and SN-38 (NSC673596) were obtained from the National Cancer Institute (NCI) Developmental Therapeutics Program Chemical Repository (32). The FDA-approved anticancer drug set is available from the Developmental Therapeutics Program at https://dtp.cancer.gov/organization/dscb/obtaining/available plates.htm. […] The stock solutions were prepared in dimethyl sulfoxide (DMSO, Sigma-Aldrich, St. Louis, MO, cat. D2650), except for the platinum compounds which were prepared in saline (Quality Biological, Gaithersburg, MD, cat. 114-055-101), at 800-fold the tested concentration and stored at -70 degrees C prior to their use. All drugs and investigational agents were tested over a range starting from a high concentration at or near the clinical Cmax and decreasing in half-log increments. If the clinical Cmax for an agent had not been determined, the highest concentration tested was 10 microM (Table 1).
Cell Culture. All cells were maintained in an incubator at 37 degrees C and 5% CO2 with 95% humidity. The PDC lines were cultured according to standard operating procedures established by the NCI PDMR (https://pdmr.cancer.gov). Briefly, all PDCs were thawed and cultured in Matrigel-coated flasks prepared with a working solution of 1X Ham's F-12 nutrient mix, without supplementation (Invitrogen, Waltham, MA, cat. 11765054), 100 U/mL penicillin-streptomycin (Invitrogen, cat. 15140122), and 2.5% Matrigel (Corning Inc., Corning, NY, cat. 354248) for the first three passages. All PDCs were cultured in complete DMEM/F-12 media containing advanced DMEM/F-12 (Invitrogen, cat. 12634028), 4.9% defined fetal bovine serum, heat inactivated (HyClone Laboratories Inc., Logan, UT, cat. SH30070.03HI), 389 ng/mL hydrocortisone (Sigma-Aldrich, cat. H4001), 9.7 ng/mL human EGF recombinant protein (Invitrogen, cat. PHG0313), 23.4 microg/mL adenine (Sigma-Aldrich, cat. A2786), 97.3 U/mL penicillin-streptomycin (Invitrogen, cat. 15140122), 1.9 mM L-glutamine (Invitrogen, cat. 25030081), and 9.7 microM Y-27632 dihydrochloride (Tocris Bioscience, Bristol, United Kingdom, cat. 1254). The PDCs were cultured in complete DMEM/F12 media without 10 microM Y-27632 dihydrochloride for at least two passages prior to the screen. The established cell lines NCI-H1341 and […] were cultured in DMEM/F-12, HEPES (Invitrogen, cat. 11330032), 5% defined fetal bovine serum (HyClone Laboratories Inc., cat. SH30070.03), ITS premix universal culture supplement [insulin (5 microg/mL), transferrin (5 microg/mL), and selenious acid (5 ng/mL)] […]

The structures appear in SMILES notation. Values joined by “and” are separate entries in the source; they are usually repeats but may differ in a detail not shown here. Identical values can stand only once.
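Throughout, for viability, T/C: percent of DMSO vehicle-treated spheroid viability set as 100%.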

One may read the IC50 as the concentration that gives 50% inhibition. One may read the viability, T/C as the ratio of treated to control. Consider `CC(C)CC(NC(=O)C(Cc1ccccc1)NC(=O)c1cnccn1)B(O)O` (configuration not stated) + Cc1cncc(-c2nc(NCCc3c[nH]c4ccccc34)c3ncn(C(C)C)c3n2)c1, for which the IC50 (curve of first compound, second compound 0.1 µM) was 7.54 nM; the half-inhibitory concentration (IC50) (curve of first compound, second compound 0.316 µM) was 11.2 nM; the half-inhibitory concentration (IC50) (curve of first compound, second compound 1 µM) was 10.7 nM; the half-inhibitory concentration (IC50) (curve of first compound, second compound 3.16 µM) was determined as 7.07 nM; the IC50 (curve of first compound, second compound 10 µM) is under 0.949 nM. The viability, T/C was 112% (second compound 0.1 µM, first compound 0.000949 µM); 83.3% (second compound 0.1 µM, first compound 0.003 µM); 46.1% (second compound 0.1 µM, first compound 0.00949 µM); 1.55% (second compound 0.1 µM, first compound 0.03 µM); 0.43% (second compound 0.1 µM, first compound 0.0949 µM); 0.56% (second compound 0.1 µM, first compound 0.3 µM). Moreover, the viability, T/C reads like this: (second compound 0.316 µM, first compound 0.000949 µM) 107%; (second compound 0.316 µM, first compound 0.003 µM) 95%; (second compound 0.316 µM, first compound 0.00949 µM) 58.9%; (second compound 0.316 µM, first compound 0.03 µM) 1.17%; (second compound 0.316 µM, first compound 0.0949 µM) 0.65%; (second compound 0.316 µM, first compound 0.3 µM) 0.45%. Besides, the viability, T/C is 116% (second compound 1 µM, first compound 0.000949 µM); 106% (second compound 1 µM, first compound 0.003 µM); 56.6% (second compound 1 µM, first compound 0.00949 µM); 0.7% (second compound 1 µM, first compound 0.03 µM); 0.26% (second compound 1 µM, first compound 0.0949 µM); 0.31% (second compound 1 µM, first compound 0.3 µM). The viability, T/C was 83.9% (second compound 3.16 µM, first compound 0.000949 µM); 97% (second compound 3.16 µM, first compound 0.003 µM); 36.1% (second compound 3.16 µM, first compound 0.00949 µM); 0.65% (second compound 3.16 µM, first compound 0.03 µM); 2.21% (second compound 3.16 µM, first compound 0.0949 µM); 0.22% (second compound 3.16 µM, first compound 0.3 µM). In addition, the viability, T/C (second compound 10 µM, first compound 0.000949 µM) was 21.9%; the viability, T/C (second compound 10 µM, first compound 0.003 µM) is 24.2%; the viability, T/C (second compound 10 µM, first compound 0.00949 µM) is 12.7%; the viability, T/C (second compound 10 µM, first compound 0.03 µM) is 0.35%; the viability, T/C (second compound 10 µM, first compound 0.0949 µM) was 1.63%; the viability, T/C (second compound 10 µM, first compound 0.3 µM) is 1.52%.
Consider `Nc1ncn(C2CC(O)C(CO)S2)c(=O)n1` (configuration not stated), for which the viability, T/C is 110% and 102% and 115% (compound 0.000949 µM); 104% and 111% and 121% (compound 0.003 µM); 105% and 93% and 90.2% (compound 0.00949 µM); 98% and 87.8% and 92.5% (compound 0.03 µM); 80.2% and 77.9% and 76.2% (compound 0.0949 µM); 81.4% and 64.2% and 70.1% (compound 0.3 µM). For the same compound, the IC50 (curve of compound) is over 300 nM.

Source of the values: PubChem BioAssay AID1919009 (Molecular Pharmacology Branch, DTP, NCI, 2023).
